This is an account of results in patent US6489317B1, “Method for eradication of Helicobacter pylori” (priority 1998, dated 2002).

For the assay, the system named is H. pylori. The experiment in a line: E-test (epsilon test, AB Biodisc) antibiotic sensitivity of H. pylori cultured from patients. Type of assay: cell-based, Helicobacter pylori. The source says: The E-test is used as a graded antibiotic sensitivity detecting strip for examining resistance of H.pylori.

In the case of `CO[C@H]1/C=C/O[C@@]2(C)Oc3c(C)c(O)c4c(c3C2=O)C2=NC3(CCN(CC(C)C)CC3)NC2=C(NC(=O)/C(C)=C\C=C\[C@H](C)[C@H](O)[C@@H](C)[C@@H](O)[C@@H](C)[C@H](OC(C)=O)[C@@H]1C)C4=O` [Rifabutin], for the setting “H. pylori isolate of each patient”, the E. Test Rifabutin was under 0.002 µg/mL. In addition, the “E. Test Rifabutin Result” value (H. pylori isolate of each patient, Resistant/Sensitive) is on record as “Sensitive”. Moreover, the “sensitivity of infection to rifabutin” value (all cases of H. pylori infection resistant to one or both of metronidazole and clarithromycin) is listed as “sensitive”.
